Assay results: patent US9617259B2, “Histone deacetylase inhibitors and compositions and methods of use thereof” (CHDI Foundation, Inc., priority 2013, dated 2017)

Target: human catalytic domain HDAC4 protein (amino acids 648-1032) (Homo sapiens (Human), UniProt P56524)
Test: Inhibition of HDAC4 catalytic domain enzymatic activity, fluorogenic substrate Boc-Lys(Tfa)-AMC
Conditions: read-out: Biochemical HDAC-4 IC50
Description: Analysis of Inhibition of HDAC4 with Class IIa Histone Deacetylase (HDAC) Inhibitors
The potency of Class IIa Histone Deacetylase (HDAC) inhibitors is quantified by measuring the Histone Deacetylase 4 (HDAC4) catalytic domain enzymatic activity using the fluorogenic substrate, Boc-Lys(Tfa)-AMC. The substrate is deacetylated to Boc-Lys-AMC by HDAC4. Cleavage by trypsin results in the release of the fluorophore AMC from the deacetylated substrate. The fluorescence of the sample is directly related to the histone deacetylase activity in the sample.
Serial dilutions of the HDAC inhibitors and control reference compound (1-(5-(3-((4-(1,3,4-oxadiazol-2-yl)phenoxy)methyl)-1,2,4-oxadiazol-5-yl)thiophen-2-yl)-2,2,2-trifluoroethanone) are made by first resuspending the lyophilized compound to a final concentration of 10 mM in 100% dimethyl sulfoxide (DMSO). Stocks of 60 μl aliquots of the 10 mM compound in DMSO are prepared and stored at −20° C. From one stock aliquot of each compound to be tested and the reference compound, a 16-point serial dilution is prepared according to
2 μl (200×) of each diluted solution and each control (full activity: 100% DMSO alone or full inhibition 1 mM) is stamped into V-bottomed polypropylene 384-well compound plates using either the Bravo (384-well head from Agilent) or 12.5 μl 16-channel Matrix multi-channel pipette (Matrix Technologies Ltd).
A working solution of enzyme is prepared from a 500 μg/ml stock aliquot of HDAC4 catalytic domain (thawed on ice) diluted to 0.2 μg/ml with assay buffer (50 mM Tris-HCl, 137 mM NaCl, 2.7 mM KCl, and 1 mM MgCl2 at pH 8 and equilibrated to room temperature) just prior to the addition of the enzyme to the assay.
5× (50 μM) substrate is prepared just prior to the addition to the assay. A 1 mM substrate stock is made by diluting a 100 mM Boc-Lys(Tfa)-AMC in DMSO solution 1:100 by adding it drop-wise to assay buffer (equilibrated to room temperature) while vortexing at slow speed to prevent precipitation. The 5× substrate is prepared by diluting the 1 mM substrate solution 1:20 by adding it drop-wise to assay buffer (equilibrated to room temperature) while vortexing at slow speed to prevent precipitation.
3× (30 μM) Developer/Stop Solution is prepared just prior to addition to the plate by diluting a stock solution of 10 mM reference compound 1:333 in 25 mg/ml trypsin (PAA Laboratories Ltd.) equilibrated to room temperature.
5 μl of each solution of 1:20 diluted compound from above is transferred to a clear bottomed, black, 384-well assay plate using the Bravo or the Janus (384-well MDT head from Perkin Elmer). Using a 16-channel Matrix multi-channel pipette, 35 μl of the working solution of HDAC4 catalytic domain enzyme (0.2 μg/ml in assay buffer) is transferred to the assay plate. The assay is then started by adding 10 μl of 5× (50 μM) substrate to the assay plates using either the Bravo, Janus or 16-channel Matrix multi-channel pipette. The assay plate is then shaken for two minutes on an orbital shaker at 900 rpm (rotations per minute). Next the plate is incubated for 15 minutes at 37° C. The reaction is stopped by adding 25 al of 3× (30 μM) developer/stop solution to the assay plates using either the Bravo, Janus or a 16-channel Matrix multi-channel pipette. Assay plates are then shaken for 5 minutes on an orbital shaker at 1200 rpm. Next, the assay plates are incubated at 37° C. for 1 hour in a tissue culture incubator. Finally, the fluorescence is measured (Excitation: 355 nm, Emission: 460 nm) using PerkinElmer EnVision in top read mode.

human catalytic domain HDAC4 protein (amino acids 648-1032), sequence (P56524 648-1032): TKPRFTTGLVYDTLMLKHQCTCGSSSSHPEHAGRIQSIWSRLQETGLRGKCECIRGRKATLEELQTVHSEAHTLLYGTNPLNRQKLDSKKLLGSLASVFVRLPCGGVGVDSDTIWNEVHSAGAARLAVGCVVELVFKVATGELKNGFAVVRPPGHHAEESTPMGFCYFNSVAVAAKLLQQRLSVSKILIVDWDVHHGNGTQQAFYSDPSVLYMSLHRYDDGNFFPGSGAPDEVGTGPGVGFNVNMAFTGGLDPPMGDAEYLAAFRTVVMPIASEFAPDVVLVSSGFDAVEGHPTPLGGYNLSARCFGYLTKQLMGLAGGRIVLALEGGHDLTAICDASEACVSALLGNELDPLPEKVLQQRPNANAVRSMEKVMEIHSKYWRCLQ

Row | Structure (SMILES) | IC50 [nM]
1 | Cc1c(F)cccc1[C@]1(C(=O)NO)C=C(c2ccccc2)CC1 [Example 1, (R)-1-(3-fluoro-2-methylphenyl)-N-hydroxy-3-phenylcyclopent-2-enecarboxamide] | 7600
2 | Cc1c(F)cccc1[C@@]1(C(=O)NO)C=C(c2ccccc2)CC1 [Example 2, (S)-1-(3-fluoro-2-methylphenyl)-N-hydroxy-3-phenylcyclopent-2-enecarboxamide] | 20
3 | Cc1ccccc1C1=C[C@@](C(=O)NO)(c2cccc(F)c2C)CC1 [Example 3, (R)-1-(3-fluoro-2-methyl-phenyl)-N-hydroxy-3-(o-tolyl)cyclopent-2-ene-1-carboxamide] | 230
4 | Cc1ccccc1C1=C[C@](C(=O)NO)(c2cccc(F)c2C)CC1 [Example 4, (S)-1-(3-fluoro-2-methyl-phenyl)-N-hydroxy-3-(o-tolyl)cyclopent-2-ene-1-carboxamide] | 20
5 | Cc1c(F)cccc1[C@]1(C(=O)NO)C=C(c2cncc(F)c2)CC1 [Example 5, (R)-1-(3-fluoro-2-methylphenyl)-3-(5-fluoropyridin-3-yl)-N-hydroxycyclopent-2-enecarboxamide] | 670
6 | Cc1c(F)cccc1[C@@]1(C(=O)NO)C=C(c2cncc(F)c2)CC1 [Example 6, (S)-1-(3-fluoro-2-methylphenyl)-3-(5-fluoropyridin-3-yl)-N-hydroxycyclopent-2-enecarboxamide] | 10
7 | Cc1c(F)cccc1[C@]1(C(=O)NO)C=C(c2cnccn2)CC1 [Example 7, (R)-1-(3-fluoro-2-methylphenyl)-N-hydroxy-3-(pyrazin-2-yl)cyclopent-2-ene carboxamide] | > 50000
8 | Cc1c(F)cccc1[C@@]1(C(=O)NO)C=C(c2cncc(Cl)c2)CC1 [Example 11, (S)-3-(5-chloropyridin-3-yl)-1-(3-fluoro-2-methylphenyl)-N-hydroxycyclopent-2-enecarboxamide] | 20
9 | Cc1c(F)cccc1[C@@]1(C(=O)NO)C=C(c2ccc3nccnc3c2)CC1 [Example 12, (S)-1-(3-fluoro-2-methylphenyl)-N-hydroxy-3-(quinoxalin-6-yl)cyclopent-2-enecarboxamide] | 10
10 | Cc1c(F)cccc1[C@@]1(C(=O)NO)C=C(c2ccnc(C(F)(F)F)c2)CC1 [Example 13, (S)-1-(3-fluoro-2-methylphenyl)-N-hydroxy-3-(2-(trifluoromethyl)pyridin-4-yl)cyclopent-2-enecarboxamide] | 40
11 | Cc1c(F)cccc1[C@@]1(C(=O)NO)C=C(c2cncnc2)CC1 [Example 14, (S)-1-(3-fluoro-2-methylphenyl)-N-hydroxy-3-(pyrimidin-5-yl)cyclopent-2-enecarboxamide] | 30
12 | Cc1c(F)cccc1[C@@]1(C(=O)NO)C=C(c2ccc(F)cn2)CC1 [Example 15, (S)-1-(3-fluoro-2-methylphenyl)-3-(5-fluoropyridin-2-yl)-N-hydroxycyclopent-2-enecarboxamide] | 40
13 | Cc1c(F)cccc1[C@@]1(C(=O)NO)C=C(c2ccc(C(F)(F)F)nc2)CC1 [Example 16, (S)-1-(3-fluoro-2-methylphenyl)-N-hydroxy-3-(6-(trifluoromethyl)pyridin-3-yl)cyclopent-2-enecarboxamide] | 20
14 | Cc1c(F)cccc1[C@@]1(C(=O)NO)C=C(c2cncc(C(F)(F)F)c2)CC1 [Example 17, (S)-1-(3-fluoro-2-methylphenyl)-N-hydroxy-3-(5-(trifluoromethyl)pyridin-3-yl)cyclopent-2-enecarboxamide] | 30
15 | Cc1c(F)cccc1[C@@]1(C(=O)NO)C=C(c2cnn(C(F)F)c2)CC1 [Example 18, (S)-3-(1-(difluoromethyl)-1H-pyrazol-4-yl)-1-(3-fluoro-2-methylphenyl)-N-hydroxycyclopent-2-enecarboxamide] | 20
16 | Cc1c(F)cccc1[C@@]1(C(=O)NO)C=C(c2cc(F)cnc2C2CC2)CC1 [Example 19, (S)-3-(2-cyclopropyl-5-fluoropyridin-3-yl)-1-(3-fluoro-2-methylphenyl)-N-hydroxycyclopent-2-enecarboxamide] | 40
17 | Cc1c(F)cccc1[C@@]1(C(=O)NO)C=C(c2ccc3nc(C(F)(F)F)cnc3c2)CC1 [Example 20, (S)-1-(3-fluoro-2-methylphenyl)-N-hydroxy-3-(2-(trifluoromethyl)quinoxalin-6-yl)cyclopent-2-enecarboxamide] | 70

Other lines, results leading:

Row | IC50 [nM] | Structure (SMILES)
18 | 10 | Cc1c(F)cccc1[C@@]1(C(=O)NO)C=C(c2ccn3ccnc3c2)CC1 [Example 21, (S)-1-(3-fluoro-2-methylphenyl)-N-hydroxy-3-(imidazo[1,2-a]pyridin-7-yl)cyclopent-2-enecarboxamide]
19 | 30 | Cc1c(F)cccc1[C@@]1(C(=O)NO)C=C(c2ccc3onc(C)c3c2)CC1 [Example 22, (S)-1-(3-fluoro-2-methylphenyl)-N-hydroxy-3-(3-methylbenzo[d]isoxazol-5-yl)cyclopent-2-enecarboxamide]
20 | 40 | COc1ncc(C2=C[C@](C(=O)NO)(c3cccc(F)c3C)CC2)cc1F [Example 23, (S)-1-(3-fluoro-2-methylphenyl)-3-(5-fluoro-6-methoxypyridin-3-yl)-N-hydroxycyclopent-2-enecarboxamide]
21 | 20 | Cc1c(F)cccc1[C@@]1(C(=O)NO)C=C(c2cnc(C3CC3)nc2)CC1 [Example 24, (S)-3-(2-cyclopropylpyrimidin-5-yl)-1-(3-fluoro-2-methylphenyl)-N-hydroxycyclopent-2-enecarboxamide]
22 | 10 | Cc1ccc(C2=C[C@](C(=O)NO)(c3cccc(F)c3C)CC2)cn1 [Example 25, (S)-1-(3-fluoro-2-methylphenyl)-N-hydroxy-3-(6-methylpyridin-3-yl)cyclopent-2-enecarboxamide]
23 | 10 | Cc1ncc(C2=C[C@](C(=O)NO)(c3cccc(F)c3C)CC2)cc1Cl [Example 26, (S)-3-(5-chloro-6-methylpyridin-3-yl)-1-(3-fluoro-2-methylphenyl)-N-hydroxycyclopent-2-enecarboxamide]
24 | 20 | Cc1c(F)cccc1[C@@]1(C(=O)NO)C=C(c2ccnn2C)CC1 [Example 27, (S)-1-(3-fluoro-2-methylphenyl)-N-hydroxy-3-(1-methyl-1H-pyrazol-5-yl)cyclopent-2-enecarboxamide]
25 | 20 | Cc1c(F)cccc1[C@@]1(C(=O)NO)C=C(c2cnn(CC(F)(F)F)c2)CC1 [Example 28, (S)-1-(3-fluoro-2-methylphenyl)-N-hydroxy-3-(1-(2,2,2-trifluoroethyl)-1H-pyrazol-4-yl)cyclopent-2-enecarboxamide]
26 | 30 | Cc1c(F)cccc1[C@@]1(C(=O)NO)C=C(c2cccc3cnsc23)CC1 [Example 29, (S)-3-(benzo[d]isothiazol-7-yl)-1-(3-fluoro-2-methylphenyl)-N-hydroxycyclopent-2-enecarboxamide]
27 | 12300 | O=C(NO)C1(c2ccccc2)CC=CC1 [Example 30, N-hydroxy-1-phenyl-cyclopent-3-enecarboxamide]
28 | 8300 | O=C(NO)C1(c2ccccc2F)CC=CC1 [Example 31, 1-(2-fluorophenyl)-N-hydroxy-cyclopent-3-enecarboxamide]
29 | 40 | Cc1c(F)cccc1[C@@]1(C(=O)NO)C=C(C2CC2)CC1 [Example 32, (S)-3-cyclopropyl-1-(3-fluoro-2-methylphenyl)-N-hydroxycyclopent-2-enecarboxamide]
30 | 190 | O=C(NO)[C@]1(c2ccccc2)C=C(c2ccccc2)CC1 [Example 33, (S)—N-hydroxy-1,3-diphenylcyclopent-2-enecarboxamide]
31 | 31000 | O=C(NO)[C@@]1(c2ccccc2)C=C(c2ccccc2)CC1 [Example 34, (R)—N-hydroxy-1,3-diphenylcyclopent-2-enecarboxamide]
